Measurements taken from patent US20240108601A1, “TREATMENT OF MENTAL DISORDERS” (GH Research Ireland Limited, priority 2022, published 2024).
Where “and” joins values, the source holds several entries; their conditions need not be identical. Identical values can stand only once.

Tested on: patients with treatment-resistant major depressive disorder (TRD)
Test: Phase 1/2 clinical trial of inhaled 5-MeO-DMT in treatment-resistant depression
Conditions: for MADRS Concentration Difficulties % improvement / MADRS Concentration Difficulties improvement / MADRS Inability to Feel % improvement / MADRS Inability to Feel improvement / MADRS Inner Tension % improvement / MADRS Inner Tension improvement / MADRS Lassitude % improvement / MADRS Lassitude improvement / MADRS Pessimistic Thoughts % improvement / MADRS Pessimistic Thoughts improvement / MADRS Suicidal Thoughts % improvement / MADRS Suicidal Thoughts improvement / MADRS Suicidal Thoughts aggregated score / MADRS Inner Tension aggregated score / MADRS Lassitude aggregated score / MADRS Pessimistic Thoughts aggregated score / MADRS Concentration Difficulties aggregated score / MADRS Inability to Feel aggregated score / BPRS Anxiety % improvement / BPRS Anxiety improvement / BPRS Blunted Affect % improvement / BPRS Blunted Affect improvement / BPRS Emotional Withdrawal % improvement / BPRS Emotional Withdrawal improvement / BPRS Guilt Feelings % improvement / BPRS Guilt Feelings improvement / BPRS Tension % improvement / BPRS Tension improvement / BPRS Emotional Withdrawal aggregated score / BPRS Blunted Affect aggregated score / BPRS Tension aggregated score / BPRS Guilt Feelings aggregated score / BPRS Anxiety aggregated score / MADRS Reduced Sleep % improvement / MADRS Reduced Sleep improvement / MADRS Reduced Sleep aggregated score: IDR n=8; for MADRS Suicidal Thoughts aggregated score: baseline 11; for MADRS Inner Tension aggregated score: baseline 26; for MADRS Lassitude aggregated score: baseline 27; for MADRS Pessimistic Thoughts aggregated score: baseline 28; for MADRS Concentration Difficulties aggregated score: baseline 30; for MADRS Inability to Feel aggregated score: baseline 36; for BPRS Emotional Withdrawal aggregated score: baseline 13; for BPRS Blunted Affect aggregated score: baseline 15; for BPRS Tension aggregated score: baseline 16; for BPRS Guilt Feelings aggregated score: baseline 34; for BPRS Anxiety aggregated score: baseline 37; for MADRS Reduced Sleep aggregated score: baseline 25
Description: Patients were assigned to different groups. In the context of the present invention, the group who received a single, 12 mg dose and the group who underwent an intra-day individualized dosing regimen (IDR) that allowed for multiple, escalating doses (6 mg, 12 mg and 18 mg) within a single day, driven by the intensity of the patient-reported psychedelic experience are of interest.
The data gathered include the assessment of the treated patients against several scales including the Montgomery Åsberg Depression Rating Scale (MADRS) and the Brief Psychiatric Rating Scale (BPRS).
This trial was designed in two parts. Part A was an open-label, single-arm, single-dose Phase 1 trial with two dose levels (12 mg (n=4) and 18 mg (n=4)). […] The primary endpoint of Part B was to assess the effects on the severity of depression, as assessed by the proportion of patients in remission on day seven after dosing, defined as a MADRS total score of less than or equal to 10.

COc1ccc2[nH]cc(CCN(C)C)c2c1 [5-MeO-DMT]
MADRS Concentration Difficulties % improvement (2 h): 63% and 63.33% | MADRS Concentration Difficulties improvement (2 h): 19 points | MADRS Inability to Feel % improvement (2 h): 67% and 66.67% | MADRS Inability to Feel improvement (2 h): 24 points | MADRS Inner Tension % improvement (2 h): 58% and 57.69% | MADRS Inner Tension improvement (2 h): 15 points | MADRS Lassitude % improvement (2 h): 63% and 62.96% | MADRS Lassitude improvement (2 h): 17 points | MADRS Pessimistic Thoughts % improvement (2 h): 75% | MADRS Pessimistic Thoughts improvement (2 h): 21 points | MADRS Suicidal Thoughts % improvement (2 h): 73% and 72.72% | MADRS Suicidal Thoughts improvement (2 h): 8 points | MADRS Suicidal Thoughts aggregated score (2 h): 3 | MADRS Inner Tension aggregated score (2 h): 11 | MADRS Lassitude aggregated score (2 h): 10 | MADRS Pessimistic Thoughts aggregated score (2 h): 7 | MADRS Concentration Difficulties aggregated score (2 h): 11 | MADRS Inability to Feel aggregated score (2 h): 12 | BPRS Anxiety % improvement (3 h): 49% and 48.65% | BPRS Anxiety improvement (3 h): 18 points | BPRS Blunted Affect % improvement (3 h): 27% and 26.67% | BPRS Blunted Affect improvement (3 h): 4 points | BPRS Emotional Withdrawal % improvement (3 h): 38% and 38.46% | BPRS Emotional Withdrawal improvement (3 h): 5 points | BPRS Guilt Feelings % improvement (3 h): 59% and 58.82% | BPRS Guilt Feelings improvement (3 h): 20 points | BPRS Tension % improvement (3 h): 31% and 31.25% | BPRS Tension improvement (3 h): 5 points | BPRS Emotional Withdrawal aggregated score (3 h): 8 | BPRS Blunted Affect aggregated score (3 h): 11 | BPRS Tension aggregated score (3 h): 11 | BPRS Guilt Feelings aggregated score (3 h): 14 | BPRS Anxiety aggregated score (3 h): 19 | BPRS Anxiety % improvement (day 1): 57% and 56.76% | BPRS Anxiety improvement (day 1): 21 points | BPRS Blunted Affect % improvement (day 1): 47% and 46.67% | BPRS Blunted Affect improvement (day 1): 7 points | BPRS Emotional Withdrawal % improvement (day 1): 38% and 38.46% | BPRS Emotional Withdrawal improvement (day 1): 5 points | BPRS Guilt Feelings % improvement (day 1): 68% and 67.65% | BPRS Guilt Feelings improvement (day 1): 23 points | BPRS Tension % improvement (day 1): 31% and 31.25% | BPRS Tension improvement (day 1): 5 points | MADRS Concentration Difficulties % improvement (day 1): 97% and 96.67% | MADRS Concentration Difficulties improvement (day 1): 29 points | MADRS Inability to Feel % improvement (day 1): 94% and 94.44% | MADRS Inability to Feel improvement (day 1): 34 points | MADRS Inner Tension % improvement (day 1): 77% and 76.92% | MADRS Inner Tension improvement (day 1): 20 points | MADRS Lassitude % improvement (day 1): 81% and 81.48% | MADRS Lassitude improvement (day 1): 22 points | MADRS Pessimistic Thoughts % improvement (day 1): 86% and 85.71% | MADRS Pessimistic Thoughts improvement (day 1): 24 points | MADRS Reduced Sleep % improvement (day 1): 52% | MADRS Reduced Sleep improvement (day 1): 13 points | MADRS Suicidal Thoughts % improvement (day 1): 91% and 90.91% | MADRS Suicidal Thoughts improvement (day 1): 10 points | MADRS Suicidal Thoughts aggregated score (day 1): 1 | BPRS Emotional Withdrawal aggregated score (day 1): 8 | BPRS Blunted Affect aggregated score (day 1): 8 | BPRS Tension aggregated score (day 1): 11 | MADRS Reduced Sleep aggregated score (day 1): 12 | MADRS Inner Tension aggregated score (day 1): 6 | MADRS Lassitude aggregated score (day 1): 5 | MADRS Pessimistic Thoughts aggregated score (day 1): 4 | MADRS Concentration Difficulties aggregated score (day 1): 1 | BPRS Guilt Feelings aggregated score (day 1): 11 | MADRS Inability to Feel aggregated score (day 1): 2 | BPRS Anxiety aggregated score (day 1): 16 | BPRS Anxiety % improvement (day 7): 54% and 54.05% | BPRS Anxiety improvement (day 7): 20 points | BPRS Blunted Affect % improvement (day 7): 47% and 46.67% | BPRS Blunted Affect improvement (day 7): 7 points | BPRS Emotional Withdrawal % improvement (day 7): 38% and 38.46% | BPRS Emotional Withdrawal improvement (day 7): 5 points | BPRS Guilt Feelings % improvement (day 7): 71% and 70.59% | BPRS Guilt Feelings improvement (day 7): 24 points | BPRS Tension % improvement (day 7): 38% and 37.50% | BPRS Tension improvement (day 7): 6 points | MADRS Concentration Difficulties % improvement (day 7): 70% | MADRS Concentration Difficulties improvement (day 7): 21 points | MADRS Inability to Feel % improvement (day 7): 83% and 83.33% | MADRS Inability to Feel improvement (day 7): 30 points | MADRS Inner Tension % improvement (day 7): 54% and 53.85% | MADRS Inner Tension improvement (day 7): 14 points | MADRS Lassitude % improvement (day 7): 89% and 88.89% | MADRS Lassitude improvement (day 7): 24 points | MADRS Pessimistic Thoughts % improvement (day 7): 89% and 89.29% | MADRS Pessimistic Thoughts improvement (day 7): 25 points | MADRS Reduced Sleep % improvement (day 7): 64% | MADRS Reduced Sleep improvement (day 7): 16 points | MADRS Suicidal Thoughts % improvement (day 7): 73% and 72.73% | MADRS Suicidal Thoughts improvement (day 7): 8 points | MADRS Suicidal Thoughts aggregated score (day 7): 3 | BPRS Emotional Withdrawal aggregated score (day 7): 8 | BPRS Blunted Affect aggregated score (day 7): 8 | BPRS Tension aggregated score (day 7): 10 | MADRS Reduced Sleep aggregated score (day 7): 9 | MADRS Inner Tension aggregated score (day 7): 12 | MADRS Lassitude aggregated score (day 7): 3 | MADRS Pessimistic Thoughts aggregated score (day 7): 3 | MADRS Concentration Difficulties aggregated score (day 7): 9 | BPRS Guilt Feelings aggregated score (day 7): 10 | MADRS Inability to Feel aggregated score (day 7): 6 | BPRS Anxiety aggregated score (day 7): 17 | Patients maintaining remission (IDR, Day 7): 7/8 | Patients achieving remission (IDR, day 1): 8/8 | Patients achieving remission (IDR, within 2h after dosing): 5/8 | SAEs (Part A): No SAEs were reported | Changes in safety laboratory analyses, vital signs, psychiatric safety assessments, cognitive function (Part A and Part B): No clinically significant changes | Patients with at least one ADR (Part A, both groups (12 mg and 18 mg), all mild, resolved spontaneously): 3 of 4 | SAEs (Part B): No SAEs were reported | Patients with at least one ADR (Part B IDR n=8, all resolved spontaneously): 87.5% | Hypomania induction (TRD patients): no evidence of hypomania induction
